By IC50 is commonly meant the point on the concentration scale where inhibition reaches its midpoint.

The values that follow come from patent publication US11325899B2, “Benzofurane and benzothiophene derivatives as PGE2 receptor modulators” (IDORSIA PHARMACEUTICALS LTD, priority 2017, dated 2022).

Assay [1] deals with T1, EP2 receptor (Homo sapiens, UniProt P43116).
T1 construct: SF295 glioblastoma cells express high endogenous EP2 and no EP4; host or cells: SF295 glioblastoma cells
Briefly: hEP2 cAMP assay (SF295 glioblastoma cells, HTRF cAMP, PGE2 stimulation). The class given is cell-based. The note with it: antagonistic activity. The procedure, abridged:
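HTRF cAMP readout gave % cAMP relative to DMSO, fitted to IC50 with duplicate points. Compounds were preincubated 45 min at room temperature with EP2-expressing, EP4-negative SF295 cells in IBMX (2 mM)-containing buffer before a 30 min challenge with PGE2 at 75 nM final, its EC80.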
For orientation: Cyclic AMP is a second messenger, typically raised through Gs and lowered through Gi signalling.

Assay [2] addresses T2, EP4 receptor (Homo sapiens, UniProt P35408).
T2 construct: BT549 breast cancer cells, express high endogenous EP4 levels and very low EP2 levels; host or cells: BT549 breast cancer cells
The assay can be described thus: hEP4 cAMP assay (BT549 breast cancer cells, HTRF cAMP, PGE2 stimulation). The note with it: antagonistic activity, PGE2 6 nM (EC80). The class given is cell-based. The procedure, abridged: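 BT549 cells, with endogenous EP4 and very low EP2, were preincubated 45 min at room temperature with compound in HBSS/HEPES/BSA buffer with 2 mM IBMX. They were then stimulated 30 min with 6 nM PGE2 (EC80). cAMP was measured by HTRF competitive immunoassay against a calibrator; IC50 from duplicate dose-response as % of DMSO control.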

T1 sequence (P43116 whole entry): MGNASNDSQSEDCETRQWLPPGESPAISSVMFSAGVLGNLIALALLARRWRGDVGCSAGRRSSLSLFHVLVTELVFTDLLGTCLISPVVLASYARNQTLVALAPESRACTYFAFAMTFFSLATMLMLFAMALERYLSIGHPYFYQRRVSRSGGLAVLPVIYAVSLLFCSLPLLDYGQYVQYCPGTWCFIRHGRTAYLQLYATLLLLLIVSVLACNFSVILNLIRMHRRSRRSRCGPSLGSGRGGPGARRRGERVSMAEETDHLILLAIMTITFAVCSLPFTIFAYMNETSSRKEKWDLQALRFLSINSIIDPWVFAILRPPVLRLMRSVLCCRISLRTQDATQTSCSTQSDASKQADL
T2 sequence (P35408 whole entry): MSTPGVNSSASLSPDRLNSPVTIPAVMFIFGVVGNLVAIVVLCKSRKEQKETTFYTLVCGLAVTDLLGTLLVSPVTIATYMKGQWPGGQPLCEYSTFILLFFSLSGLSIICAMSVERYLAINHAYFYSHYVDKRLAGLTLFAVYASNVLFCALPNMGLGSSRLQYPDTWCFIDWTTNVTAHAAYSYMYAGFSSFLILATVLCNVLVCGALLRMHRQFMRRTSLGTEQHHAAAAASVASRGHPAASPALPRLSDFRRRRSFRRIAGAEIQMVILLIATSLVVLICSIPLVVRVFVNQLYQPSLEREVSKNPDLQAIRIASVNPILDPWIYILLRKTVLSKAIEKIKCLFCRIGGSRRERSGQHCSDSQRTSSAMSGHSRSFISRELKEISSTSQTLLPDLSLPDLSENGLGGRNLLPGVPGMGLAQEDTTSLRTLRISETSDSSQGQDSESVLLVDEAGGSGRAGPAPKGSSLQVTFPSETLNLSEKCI

As for `CCOc1cc(-c2cc(NCCc3c(C)sc4ccccc34)ncn2)ccc1C(=O)O` [Example 72, 2-Ethoxy-4-{6-[2-(2-methyl-benzo[b]thiophen-3-yl)-ethylamino]-pyrimidin-4-yl}-benzoic acid], the IC50 in assay [1] was 8 nM; in assay [2], 1590 nM.
Regarding `CCOc1cc(-c2cc(NCCc3c(Cl)sc4ccccc34)ncn2)ccc1C(=O)O` [Example 75, 4-{6-[2-(2-chloro-benzo[b]thiophen-3-yl)-ethylamino]-pyrimidin-4-yl}-2-ethoxy-benzoic acid], the results for the IC50 in assay [1] and in assay [2] were 9 nM and 1160 nM, respectively.
`Cc1sc2c(C)cccc2c1CCNc1cc(-c2ccc3c(C(=O)O)coc3c2)ncn1` [Example 76, 6-{6-[2-(2,7-Dimethyl-benzo[b]thiophen-3-yl)-ethylamino]-pyrimidin-4-yl}-benzofuran-3-carboxylic acid]: the values for the IC50 in assay [1] and in assay [2] were 39 nM and 523 nM, respectively.
The corresponding values for `Cc1sc2c(C)cccc2c1CCNc1cc(-c2ccc3cc(C(=O)O)oc3c2)ncn1` [Example 77, 6-{6-[2-(2,7-Dimethyl-benzo[b]thiophen-3-yl)-ethylamino]-pyrimidin-4-yl}-benzofuran-2-carboxylic acid] are 8 nM and 130 nM.
Take `Cc1sc2c(C)cc(F)cc2c1CCNc1cc(-c2ccc(-c3nc(=O)[nH]o3)cc2)ncn1` [Example 79, 5-(4-{6-[2-(5-Fluoro-2,7-dimethyl-benzo[b]thiophen-3-yl)-ethylamino]-pyrimidin-4-yl}-phenyl)-[1,2,4]oxadiazol-3(2H)-one [tautomeric form: 5-(4-(6-((2-(5-fluoro-2,7-dimethylbenzo[b]thiophen-3-yl)ethyl)amino)pyrimidin-4-yl)phenyl)-[1,2,4]oxadiazol-3-ol]]: the IC50 in assay [1] is 106 nM; in assay [2] it was 91 nM.
`Cc1sc2c(C)cc(F)cc2c1CCNc1cc(-c2cc3c(C(=O)O)cccc3[nH]2)ncn1` [Example 82, 2-{6-[2-(5-Fluoro-2,7-dimethyl-benzo[b]thiophen-3-yl)-ethylamino]-pyrimidin-4-yl}-1H-indole-4-carboxylic acid]: the IC50 worked out at 21 nM in assay [1] and 138 nM in assay [2].
For the molecule `COc1cc(Cl)cc2c(CCNc3cc(-c4ccc(C(=O)O)c(OC5CC5)c4)ncn3)c(C)oc12` [Example 83, 4-{6-[2-(5-Chloro-7-methoxy-2-methyl-benzofuran-3-yl)-ethylamino]-pyrimidin-4-yl}-2-cyclopropoxy-benzoic acid], the IC50 in assay [1] worked out at 44 nM; in assay [2], 111 nM.
Regarding `COc1ccc(F)c2c(CCNc3cc(-c4ccc(C(=O)O)c(OC5CC5)c4)ncn3)c(C)sc12` [Example 84, 2-Cyclopropoxy-4-{6-[2-(4-fluoro-7-methoxy-2-methyl-benzo[b]thiophen-3-yl)-ethylamino]-pyrimidin-4-yl}-benzoic acid], the 50% inhibitory concentration (IC50) in assay [1] turned out to be 21 nM; in assay [2], 117 nM.
The corresponding values for `COc1cc(F)c(F)c2c(CCNc3cc(-c4ccc(C(=O)O)c(OC5CC5)c4)ncn3)c(C)oc12` [Example 85, 2-Cyclopropoxy-4-{6-[2-(4,5-difluoro-7-methoxy-2-methyl-benzofuran-3-yl)-ethylamino]-pyrimidin-4-yl}-benzoic acid] are 49 nM and 258 nM.
The corresponding values for `Cc1sc2c(C)cc(F)cc2c1CCNc1cc(-c2ccc(C(=O)O)c(OCCO)c2)ncn1` [Example 86, 4-{6-[2-(5-fluoro-2,7-dimethyl-benzo[b]thiophen-3-yl)-ethylamino]-pyrimidin-4-yl}-2-(2-hydroxy-ethoxy)-benzoic acid] are 11 nM and 289 nM.
The like results for `CCCSc1cc(-c2cc(NCCc3c(C)sc4c(C)cccc34)ncn2)ccc1C(=O)O` [Example 87, 4-{6-[2-(2,7-Dimethyl-benzo[b]thiophen-3-yl)-ethylamino]-pyrimidin-4-yl}-2-propylsulfanyl-benzoic acid] were, in that order, 15 nM and 451 nM.
Regarding `CCCSc1cc(-c2cc(NCCc3c(C)sc4ccccc34)ncn2)ccc1C(=O)O` [Example 88, 4-{6-[2-(2-Methyl-benzo[b]thiophen-3-yl)-ethylamino]-pyrimidin-4-yl}-2-propylsulfanyl-benzoic acid], the IC50 came to 11 nM in assay [1] and 695 nM in assay [2].
On to `CCCSc1cc(-c2cc(NCCc3c(C)oc4ccccc34)ncn2)ccc1C(=O)O` [Example 89, 4-{6-[2-(2-Methyl-benzofuran-3-yl)-ethylamino]-pyrimidin-4-yl}-2-propylsulfanyl-benzoic acid], for which the IC50 was 5 nM in assay [1] and 1140 nM in assay [2].
With `Cc1sc2c(C)cccc2c1CCNc1cc(-c2ccc(C(=O)O)c(SC(C)C)c2)ncn1` [Example 90, 4-{6-[2-(2,7-Dimethyl-benzo[b]thiophen-3-yl)-ethylamino]-pyrimidin-4-yl}-2-isopropylsulfanyl-benzoic acid], the IC50 amounted to 35 nM in assay [1] and 338 nM in assay [2].
The corresponding values for `Cc1sc2ccccc2c1CCNc1cc(-c2ccc(C(=O)O)c(SC(C)C)c2)ncn1` [Example 91, 2-Isopropylsulfanyl-4-{6-[2-(2-methyl-benzo[b]thiophen-3-yl)-ethylamino]-pyrimidin-4-yl}-benzoic acid] are 10 nM and 539 nM.
For `Cc1oc2ccccc2c1CCNc1cc(-c2ccc(C(=O)O)c(SC(C)C)c2)ncn1` [Example 92, 2-Isopropylsulfanyl-4-{6-[2-(2-methyl-benzofuran-3-yl)-ethylamino]-pyrimidin-4-yl}-benzoic acid], the IC50 is 6 nM in assay [1] and 672 nM in assay [2].
The corresponding values for `CCc1cc(-c2cc(NCCc3c(C)sc4c(C)cc(F)cc34)ncn2)cc(C)c1CC(=O)O` [Example 194, (2-Ethyl-4-{6-[2-(5-fluoro-2,7-dimethyl-benzo[b]thiophen-3-yl)-ethylamino]-pyrimidin-4-yl}-6-methyl-phenyl)-acetic acid] are 326 nM and 71 nM.
The like results for `Cc1sc2c(C)cc(F)cc2c1CCNc1cc(-c2ccc(C(=O)O)c(OC3CC3)c2)ncn1` [Example 195, 2-Cyclopropoxy-4-{6-[2-(5-fluoro-2,7-dimethyl-benzo[b]thiophen-3-yl)-ethylamino]-pyrimidin-4-yl}-benzoic acid] were, in that order, 6 nM and 48 nM.
`Cc1sc2c(C)cc(F)cc2c1CCNc1cc(-c2ccc(CC(=O)O)c(OC3CC3)c2)ncn1` [Example 196, (2-Cyclopropoxy-4-{6-[2-(5-fluoro-2,7-dimethyl-benzo[b]thiophen-3-yl)-ethylamino]-pyrimidin-4-yl}-phenyl)-acetic acid]: the IC50 is 50 nM in assay [1] and 100 nM in assay [2].
Regarding `CCOc1cc(-c2cc(NCCc3c(C)sc4c(C)cc(F)cc34)ncn2)ccc1-c1cc(O)no1` [Example 202, 5-(2-Ethoxy-4-{6-[2-(5-fluoro-2,7-dimethyl-benzo[b]thiophen-3-yl)-ethylamino]-pyrimidin-4-yl}-phenyl)-isoxazol-3-ol [tautomeric form: 5-(2-ethoxy-4-(6-((2-(5-fluoro-2,7-dimethylbenzo[b]thiophen-3-yl)ethyl)amino)pyrimidin-4-yl)phenyl)isoxazol-3(2H)-one]], the IC50 in assay [1] turned out to be 75 nM; in assay [2], 297 nM.
